Results as given in ChEMBL document CHEMBL5223114, “Design, synthesis and biological evaluation of novel macrocyclic derivatives bearing aniline pyrimidine scaffolds as EGFR-TKIs” (Bioorg Med Chem Lett, 2022).

How the values were obtained:
[1] = target: Epidermal growth factor receptor (Homo sapiens, UniProt P00533, 746-750DEL/C797S/T790M); assay: Inhibition of EGFR d746-750/T790M/C797S triple mutant (unknown origin)
[2] = target: Epidermal growth factor receptor (Homo sapiens, UniProt P00533, 746-750DEL/T790M); assay: Inhibition of EGFR d746-750/T790M double mutant (unknown origin)
[3] = target: Epidermal growth factor receptor (Homo sapiens, UniProt P00533, L858R/T790M); assay: Inhibition of EGFR L858R/T790M double mutant (unknown origin)
[4] = tested on: BaF3; assay: Antiproliferative activity against mouse BaF3 cells harboring EGFR del19/T790M/C797S triple mutant assessed as inhibition of cell growth incubated for 72 hrs by CCK-8 assay; assay type: functional, cell-based; conditions: BaF3, 72 h
[5] = tested on: BaF3; assay: Antiproliferative activity against mouse BaF3 cells harboring EGFR del19/T790M double mutant assessed as inhibition of cell growth incubated for 72 hrs by CCK-8 assay; assay type: functional, cell-based; conditions: BaF3, 72 h

Epidermal growth factor receptor (Homo sapiens, UniProt P00533, 746-750DEL/T790M), sequence (P00533 whole entry, looked up, stated change not applied): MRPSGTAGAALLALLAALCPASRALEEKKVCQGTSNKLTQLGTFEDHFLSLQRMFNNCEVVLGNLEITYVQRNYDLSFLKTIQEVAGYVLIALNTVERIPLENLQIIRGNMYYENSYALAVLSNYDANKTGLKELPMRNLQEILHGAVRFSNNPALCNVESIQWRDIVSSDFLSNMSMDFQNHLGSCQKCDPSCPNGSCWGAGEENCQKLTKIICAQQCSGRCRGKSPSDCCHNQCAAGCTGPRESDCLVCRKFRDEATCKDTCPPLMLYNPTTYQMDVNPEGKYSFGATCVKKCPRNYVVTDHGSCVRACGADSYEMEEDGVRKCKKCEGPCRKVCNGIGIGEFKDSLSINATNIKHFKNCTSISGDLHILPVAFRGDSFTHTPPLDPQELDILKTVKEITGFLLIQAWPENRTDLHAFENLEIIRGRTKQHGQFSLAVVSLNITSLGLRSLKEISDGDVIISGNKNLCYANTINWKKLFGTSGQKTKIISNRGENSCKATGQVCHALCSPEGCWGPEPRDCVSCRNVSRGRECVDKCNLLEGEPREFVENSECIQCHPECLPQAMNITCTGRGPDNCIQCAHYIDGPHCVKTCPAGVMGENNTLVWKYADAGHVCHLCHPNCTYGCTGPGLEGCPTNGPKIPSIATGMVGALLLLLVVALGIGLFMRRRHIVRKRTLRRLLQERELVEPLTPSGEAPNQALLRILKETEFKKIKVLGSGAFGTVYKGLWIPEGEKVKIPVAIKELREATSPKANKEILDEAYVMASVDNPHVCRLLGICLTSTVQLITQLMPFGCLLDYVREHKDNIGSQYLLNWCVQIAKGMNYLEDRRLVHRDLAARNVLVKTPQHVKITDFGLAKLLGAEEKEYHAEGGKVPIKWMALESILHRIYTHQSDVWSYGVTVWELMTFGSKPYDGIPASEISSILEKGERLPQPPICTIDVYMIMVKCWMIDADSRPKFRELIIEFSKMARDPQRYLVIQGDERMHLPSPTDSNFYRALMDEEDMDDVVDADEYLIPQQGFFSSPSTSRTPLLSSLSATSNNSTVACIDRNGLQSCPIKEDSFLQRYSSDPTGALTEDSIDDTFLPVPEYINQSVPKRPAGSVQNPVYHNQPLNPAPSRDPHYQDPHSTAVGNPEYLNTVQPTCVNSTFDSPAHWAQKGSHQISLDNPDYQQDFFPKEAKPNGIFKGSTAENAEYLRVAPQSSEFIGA
Epidermal growth factor receptor (Homo sapiens, UniProt P00533, 746-750DEL/C797S/T790M), sequence (P00533 whole entry, looked up, stated change not applied): as above
Epidermal growth factor receptor (Homo sapiens, UniProt P00533, L858R/T790M), sequence (P00533 25-1210 T790M/L858R limits assumed): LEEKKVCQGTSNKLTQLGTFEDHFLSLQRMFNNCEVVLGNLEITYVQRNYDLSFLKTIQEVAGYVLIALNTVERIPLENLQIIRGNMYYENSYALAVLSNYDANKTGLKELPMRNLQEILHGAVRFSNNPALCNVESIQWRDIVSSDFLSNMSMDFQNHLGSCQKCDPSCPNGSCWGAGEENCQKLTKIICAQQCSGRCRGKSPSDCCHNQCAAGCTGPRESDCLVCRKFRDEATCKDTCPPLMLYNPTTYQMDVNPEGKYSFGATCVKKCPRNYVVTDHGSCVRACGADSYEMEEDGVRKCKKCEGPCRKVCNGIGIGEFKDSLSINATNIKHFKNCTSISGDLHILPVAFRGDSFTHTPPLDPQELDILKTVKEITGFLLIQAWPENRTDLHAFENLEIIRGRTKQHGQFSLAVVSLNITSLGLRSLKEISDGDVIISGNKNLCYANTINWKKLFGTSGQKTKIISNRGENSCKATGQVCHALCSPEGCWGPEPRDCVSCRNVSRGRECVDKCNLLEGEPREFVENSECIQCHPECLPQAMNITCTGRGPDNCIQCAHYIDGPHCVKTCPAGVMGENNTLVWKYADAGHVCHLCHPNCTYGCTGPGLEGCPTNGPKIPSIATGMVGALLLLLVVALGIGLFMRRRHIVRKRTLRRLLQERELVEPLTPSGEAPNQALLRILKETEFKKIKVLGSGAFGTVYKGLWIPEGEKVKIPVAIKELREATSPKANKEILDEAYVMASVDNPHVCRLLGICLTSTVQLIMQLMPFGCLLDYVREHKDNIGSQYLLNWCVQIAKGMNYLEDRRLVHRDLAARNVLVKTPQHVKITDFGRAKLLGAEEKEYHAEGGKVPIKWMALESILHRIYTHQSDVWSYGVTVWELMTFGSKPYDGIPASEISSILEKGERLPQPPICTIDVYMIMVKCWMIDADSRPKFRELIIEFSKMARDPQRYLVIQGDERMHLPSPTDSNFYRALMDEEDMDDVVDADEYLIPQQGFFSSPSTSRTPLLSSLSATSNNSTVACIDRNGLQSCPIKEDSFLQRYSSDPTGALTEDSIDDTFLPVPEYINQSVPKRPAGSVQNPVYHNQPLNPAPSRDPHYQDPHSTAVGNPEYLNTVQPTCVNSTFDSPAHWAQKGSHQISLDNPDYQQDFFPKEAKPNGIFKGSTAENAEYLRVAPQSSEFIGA

Row | SMILES | IC50 [1] [nM] | IC50 [2] [nM] | IC50 [3] [nM] | IC50 [4] [nM] | IC50 [5] [nM]
1 | C=CC(=O)N1CCCCCCCn2cc(c3ccccc32)-c2ccnc(n2)Nc2cc1c(OCCCF)cc2F | > 100 | 2.96 | 25.7 |  | 
2 | C=CC(=O)N1CCCCCCn2cc(c3ccccc32)-c2ccnc(n2)Nc2cc1ccc2OC | > 100 | 0.47 | 8.31 | 893 | 51
3 | C=CC(=O)N1CCCCCCCCCn2cc(c3ccccc32)-c2ccnc(n2)Nc2cccc1c2 | > 100 | 13.2 | 25.2 |  | 
4 | C=CC(=O)N1CCCCCCn2cc(c3ccccc32)-c2ccnc(n2)Nc2cc1c(OCCCF)cc2F | > 100 | 0.6 | 13.2 | 835 | 63
5 | C=CC(=O)N1CCCCCCCn2cc(c3ccccc32)-c2ccnc(n2)Nc2cccc1c2 | 55.3 | 0.55 | 3.45 | 811 | 218
6 | C=CC(=O)N1CCCCCCCCn2cc(c3ccccc32)-c2ccnc(n2)Nc2cccc1c2 | 86.5 | 7.03 | 20.1 |  | 
7 | C=CC(=O)N1CCCCCCCn2cc(c3ccccc32)-c2ccnc(n2)Nc2cc1ccc2F |  |  |  | 712 | 213
8 | C=CC(=O)N1CCCCCCn2cc(c3ccccc32)-c2ccnc(n2)Nc2cccc1c2 |  |  |  | 839 | 215
9 | C=CC(=O)N1CCCCCCCn2cc(c3ccccc32)-c2ccnc(n2)Nc2cc1ccc2OC | > 100 | 0.65 | 10 | 867 | 148
10 | C=CC(=O)N1CCCCCCn2cc(c3ccccc32)-c2ccnc(n2)Nc2cc1ccc2F | > 100 | 0.22 | 6.49 | 695 | 35
11 | C=CC(=O)Nc1cc(Nc2nccc(-c3cn(C)c4ccccc34)n2)c(OC)cc1N(C)CCN(C)C [OSIMERTINIB] |  |  |  | 859 | 33
